Data taken from PubChem BioAssay AID1963849 (Molecular Pharmacology Branch, DTP, NCI, 2024).

Test system: 299254-011-R-J1-PDC complex spheroid viability
Test: Anticancer human tumor 299254-011-R-J1-PDC patient-derived melanoma cell line growth inhibition [POLQ]
Conditions: for IC50: curve of first compound; for viability, T/C: stronger effect = lower value
Procedure, shortened: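 Three-cell-type spheroids modelling solid tumor plus stroma served as the readout system; POL inhibitors were tested individually and in combination, concentration ranges set by clinical Cmax where known.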

[1] = second compound 0.0316 µM, first compound 0.0316 µM
[2] = second compound 0.0316 µM, first compound 0.1 µM
[3] = second compound 0.0316 µM, first compound 0.316 µM
[4] = second compound 0.0316 µM, first compound 1 µM
[5] = second compound 0.0316 µM, first compound 3.16 µM
[6] = second compound 0.0316 µM, first compound 10 µM
[7] = second compound 0.1 µM, first compound 0.0316 µM
[8] = second compound 0.1 µM, first compound 0.1 µM
[9] = second compound 0.1 µM, first compound 0.316 µM
[10] = second compound 0.1 µM, first compound 1 µM
[11] = second compound 0.1 µM, first compound 3.16 µM
[12] = second compound 0.1 µM, first compound 10 µM
[13] = second compound 0.316 µM, first compound 0.0316 µM
[14] = second compound 0.316 µM, first compound 0.1 µM
[15] = second compound 0.316 µM, first compound 0.316 µM
[16] = second compound 0.316 µM, first compound 1 µM
[17] = second compound 0.316 µM, first compound 3.16 µM
[18] = second compound 0.316 µM, first compound 10 µM
[19] = second compound 1 µM, first compound 0.0316 µM
[20] = second compound 1 µM, first compound 0.1 µM
[21] = second compound 1 µM, first compound 0.316 µM
[22] = second compound 1 µM, first compound 1 µM
[23] = second compound 1 µM, first compound 3.16 µM
[24] = second compound 1 µM, first compound 10 µM
[25] = second compound 3.16 µM, first compound 0.0316 µM
[26] = second compound 3.16 µM, first compound 0.1 µM
[27] = second compound 3.16 µM, first compound 0.316 µM
[28] = second compound 3.16 µM, first compound 1 µM
[29] = second compound 3.16 µM, first compound 3.16 µM
[30] = second compound 3.16 µM, first compound 10 µM
[31] = second compound 10 µM, first compound 0.0316 µM
[32] = second compound 10 µM, first compound 0.1 µM
[33] = second compound 10 µM, first compound 0.316 µM
[34] = second compound 10 µM, first compound 1 µM
[35] = second compound 10 µM, first compound 3.16 µM
[36] = second compound 10 µM, first compound 10 µM
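Note: spheroids exposed to drugs for one week before measurement.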
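Throughout, for viability, T/C: percent viability relative to DMSO vehicle control taken as 100%.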

In the case of `CC1COCCN1c1cc(C2(O)CC3CCC(C2)O3)c2cnn(-c3ccn[nH]3)c2n1` (stereo not drawn) + Cc1cccc(N(C)C(=O)C2C(O)CCN2c2nc(C)cc(C(F)(F)F)c2C#N)c1, the IC50 (second compound 0.0316 µM) is reported as 182 nM, the IC50 (second compound 0.1 µM) is reported as 224 nM and the IC50 (second compound 0.316 µM) is reported as 234 nM. It also gave an IC50 (second compound 1 µM) of 153 nM, an IC50 (second compound 3.16 µM) of 169 nM and an IC50 (second compound 10 µM) of 81.5 nM. For the same compound, the viability, T/C [1] was 76.1%, the viability, T/C [2] was 65.7% and the viability, T/C [3] was 35.2%. The viability, T/C [4] was 21.1%, the viability, T/C [5] was 17.5% and the viability, T/C [6] was 10.6%. It also gave a viability, T/C [7] of 93.9%, a viability, T/C [8] of 69.5% and a viability, T/C [9] of 39.1%. The viability, T/C [10] was 27.4%, the viability, T/C [11] was 17.4% and the viability, T/C [12] was 9.48%. For the same compound, the viability, T/C [13] was 81.4%, the viability, T/C [14] was 64.7% and the viability, T/C [15] was 46.5%. For the same compound, the viability, T/C [16] was 22.8%, the viability, T/C [17] was 18.6% and the viability, T/C [18] was 7.95%. It also gave a viability, T/C [19] of 99.5%, a viability, T/C [20] of 56.8% and a viability, T/C [21] of 36%. It also gave a viability, T/C [22] of 24.1%, a viability, T/C [23] of 15.5% and a viability, T/C [24] of 10.2%. The viability, T/C [25] was 97.1%, the viability, T/C [26] was 61.8% and the viability, T/C [27] was 35.5%. For the same compound, the viability, T/C [28] was 22.1%, the viability, T/C [29] was 14.2% and the viability, T/C [30] was 10.6%. For the same compound, the viability, T/C [31] was 73.5%, the viability, T/C [32] was 44.5% and the viability, T/C [33] was 27.2%. It also gave a viability, T/C [34] of 20.2%, a viability, T/C [35] of 14.2% and a viability, T/C [36] of 9.04%.

In the case of `C#Cc1c(F)ccc2cc(O)cc(-c3ncc4c(N5CC6CCC(C5)N6)nc(OCC56CCCN5CC(F)C6)nc4c3F)c12` (stereo not drawn) + Nc1ccc(C#CCN(C(=O)Cc2ncc(C(F)(F)F)cc2C(F)(F)F)c2ccc(F)cc2)nn1, the IC50 (second compound 0.0316 µM) is reported as over 10000 nM, the IC50 (second compound 0.1 µM) is reported as over 10000 nM and the IC50 (second compound 0.316 µM) is reported as over 10000 nM. It also gave an IC50 (second compound 1 µM) of over 10000 nM, an IC50 (second compound 3.16 µM) of over 10000 nM and an IC50 (second compound 10 µM) of over 10000 nM. For the same compound, the viability, T/C [1] was 106%, the viability, T/C [2] was 108% and the viability, T/C [3] was 106%. For the same compound, the viability, T/C [4] was 112%, the viability, T/C [5] was 116% and the viability, T/C [6] was 82.1%. The viability, T/C [7] was 92.3%, the viability, T/C [8] was 109% and the viability, T/C [9] was 110%. The viability, T/C [10] was 104%, the viability, T/C [11] was 103% and the viability, T/C [12] was 90.2%. The viability, T/C [13] was 107%, the viability, T/C [14] was 103% and the viability, T/C [15] was 133%. It also gave a viability, T/C [16] of 104%, a viability, T/C [17] of 98% and a viability, T/C [18] of 92.4%. The viability, T/C [19] was 114%, the viability, T/C [20] was 102% and the viability, T/C [21] was 104%. The viability, T/C [22] was 136%, the viability, T/C [23] was 103% and the viability, T/C [24] was 103%. The viability, T/C [25] was 117%, the viability, T/C [26] was 118% and the viability, T/C [27] was 106%. It also gave a viability, T/C [28] of 128%, a viability, T/C [29] of 99.1% and a viability, T/C [30] of 86.6%. For the same compound, the viability, T/C [31] was 103%, the viability, T/C [32] was 89.5% and the viability, T/C [33] was 92.6%. For the same compound, the viability, T/C [34] was 128%, the viability, T/C [35] was 96.9% and the viability, T/C [36] was 68.6%.

`COc1cccc2c1C(=O)c1c(O)c3c(c(O)c1C2=O)CC(O)(C(=O)CO)CC3OC1CC(N)C(O)C(C)O1` (stereo not drawn) + Cc1cccc(N(C)C(=O)C2C(O)CCN2c2nc(C)cc(C(F)(F)F)c2C#N)c1 gave an IC50 (second compound 0.0316 µM) of 565 nM, an IC50 (second compound 0.1 µM) of 803 nM and an IC50 (second compound 0.316 µM) of 763 nM. It also gave an IC50 (second compound 1 µM) of 670 nM, an IC50 (second compound 3.16 µM) of 567 nM and an IC50 (second compound 10 µM) of 352 nM. It also gave a viability, T/C [1] of 111%, a viability, T/C [2] of 77.3% and a viability, T/C [3] of 64.9%. It also gave a viability, T/C [4] of 44.1%, a viability, T/C [5] of 12.2% and a viability, T/C [6] of 0.75%. The viability, T/C [7] was 83.7%, the viability, T/C [8] was 75.8% and the viability, T/C [9] was 77.4%. The viability, T/C [10] was 42.9%, the viability, T/C [11] was 11.7% and the viability, T/C [12] was 0.68%. For the same compound, the viability, T/C [13] was 97.7%, the viability, T/C [14] was 83.2% and the viability, T/C [15] was 75.2%. For the same compound, the viability, T/C [16] was 43.8%, the viability, T/C [17] was 11.4% and the viability, T/C [18] was 1.03%. For the same compound, the viability, T/C [19] was 105%, the viability, T/C [20] was 89.8% and the viability, T/C [21] was 61.7%. It also gave a viability, T/C [22] of 48.6%, a viability, T/C [23] of 12% and a viability, T/C [24] of 0.75%. The viability, T/C [25] was 100%, the viability, T/C [26] was 74.8% and the viability, T/C [27] was 68.8%. It also gave a viability, T/C [28] of 38.9%, a viability, T/C [29] of 8.88% and a viability, T/C [30] of 0.51%. It also gave a viability, T/C [31] of 102%, a viability, T/C [32] of 74.6% and a viability, T/C [33] of 59.9%. For the same compound, the viability, T/C [34] was 19.8%, the viability, T/C [35] was 0.75% and the viability, T/C [36] was 0.31%.

In the case of `CCc1cc2c(N3CCc4c(cc(Cn5ccnc5)cc4-c4cn(C)nc4C(F)(F)F)C3=O)ccnc2c(OC)n1` + Cc1cccc(N(C)C(=O)C2C(O)CCN2c2nc(C)cc(C(F)(F)F)c2C#N)c1, the IC50 (second compound 0.0316 µM) is reported as over 10000 nM, the IC50 (second compound 0.1 µM) is reported as over 10000 nM and the IC50 (second compound 0.316 µM) is reported as over 10000 nM. For the same compound, the IC50 (second compound 1 µM) was over 10000 nM, the IC50 (second compound 3.16 µM) was over 10000 nM and the IC50 (second compound 10 µM) was over 10000 nM. The viability, T/C [1] was 97.6%, the viability, T/C [2] was 119% and the viability, T/C [3] was 98.9%. For the same compound, the viability, T/C [4] was 106%, the viability, T/C [5] was 109% and the viability, T/C [6] was 80.4%. For the same compound, the viability, T/C [7] was 98.7%, the viability, T/C [8] was 102% and the viability, T/C [9] was 99.7%. It also gave a viability, T/C [10] of 99.4%, a viability, T/C [11] of 99.1% and a viability, T/C [12] of 86.1%. For the same compound, the viability, T/C [13] was 98.5%, the viability, T/C [14] was 91.2% and the viability, T/C [15] was 116%. For the same compound, the viability, T/C [16] was 112%, the viability, T/C [17] was 84.2% and the viability, T/C [18] was 72.8%. The viability, T/C [19] was 110%, the viability, T/C [20] was 96.9% and the viability, T/C [21] was 113%. It also gave a viability, T/C [22] of 107%, a viability, T/C [23] of 91% and a viability, T/C [24] of 86%. For the same compound, the viability, T/C [25] was 106%, the viability, T/C [26] was 96.9% and the viability, T/C [27] was 101%. It also gave a viability, T/C [28] of 105%, a viability, T/C [29] of 95.5% and a viability, T/C [30] of 76.4%. For the same compound, the viability, T/C [31] was 94%, the viability, T/C [32] was 112% and the viability, T/C [33] was 105%. It also gave a viability, T/C [34] of 82.1%, a viability, T/C [35] of 75.7% and a viability, T/C [36] of 79%.
